Laboratory results from article PMC3674988, “Scrutinizing MHC-I Binding Peptides and Their Limits of Variation” (PLoS Computational Biology, 2013).

Tested on: H-2K^b:IgG fusion protein
Assay: Thermal denaturation assay, direct binding of SIINFEKL fragments
Design: species or system mouse
Settings: normalized fluorescence melting curves, first derivative; vs NoLigand; 100 µM peptide
Protocol: Thermal denaturation studies were conducted using a StepOnePlus real-time PCR system (Applied Biosystems) with MicroAmp optical 96-well plates (Applied Biosystems cat. no. N8010560). Wells were loaded with 10 µl of H-2K^b:IgG fusion protein solution (protein conc. = 0.5 mg×ml^−1; BD Biosciences cat. no. 550750) – respectively 10 µl of PBS buffer (pH 7.36) for ligand-only controls – 2 µl of peptide or peptide fragments, 2 µl of 10× SYPRO Orange (SigmaAldrich cat. no. S5692) and 6 µl (8 µl for negative controls) to yield a total volume of 20 µl per well. Final concentrations calculated to 1 µM for H-2K^b:IgG fusion protein, 100 µM for the peptides/peptide fragments and 1× SYPRO Orange. Fluorescence intensity was measured using the Applied Biosystems ROX preset with respective excitation/emission maxima at 587/607 nm, while heating the wells continuously from 25°C to 99°C with a ramp rate of 1% (temperature increase of 1.5°C per minute). Results were recorded by StepOne 2.2.2 software and analyzed by identifying the local minimum of the derivative of the melting curve for the segment relevant for denaturation of the peptide-binding superdomain (α1,2) of the MHC-I heavy chain.

Substance | Melting point shift of peptide-MHC-I complex (melting curves)
IINFEKL [synthesized SIINFEKL fragment] | significant melting point shift
INFE [synthesized SIINFEKL fragment] | no melting point shift
INFEKL [synthesized SIINFEKL fragment] | significant melting point shift
SIINF [synthesized SIINFEKL fragment] | significant melting point shift
SIINFE [synthesized SIINFEKL fragment] | significant melting point shift
SIINFEK [synthesized SIINFEKL fragment] | significant melting point shift
